Columns and labels:
Type in all cases: in vivo
[1] = tested on: stereotype behaviour induced by apomorphine (dopamine receptor blockade in the central nervous system); assay: Inhibition of stereotype behaviour induced by apomorphine; details: rat; for Inhibition of Stereotype Behaviour, active dose: s.c., apomorphine induced, active doses (mg/kg)
Description: (§1) 1. Compounds prepared in the Examples were tested for the following pharmacological activities in the rat:
(c) Inhibition of stereotype behaviour induced by apomorphine
This is indicative of dopamine receptor blockade in the central nervous system.

[2] = tested on: emetic response to apomorphine; assay: Anti-emetic activity in the dog (abolition of emetic response to apomorphine); details: for ED50: Canis lupus familiaris, sc, apomorphine emesis
Description: 2. Anti- emetic activity in the dog
(a) Compounds were tested in the dog for their ability to abolish the emetic response to apomorphine.

intragastric pressure [3] = assay: Increase in intragastric pressure in the rat; details: s.c., active doses (mg/kg)
Description: as §1
(a) Increase in intragastric pressure
Intragastric pressure changes were recorded from previously starved conscious but restrained rats using a saline filled catheter inserted into the lumen of the stomach via a permanent gastric fistula. The catheter was connected to a physiological pressure transducer and pressure changes recorded on a hot wire pen recorder. In each animal a pre dose period of 40 minutes was allowed to obtain a measure of spontaneous activity. An index of activity was obtained by measuring the average height of pressure waves during 10 minute periods. Values for 4 such periods were obtained during assessment of spontaneous activity and for the 40 minute period after the subcutaneous administration of the Compounds. Student "t" test was applied to the difference in average values obtained for spontaneous and post Compound activity.

intragastric pressure [4] = assay: Increase in intragastric pressure in the rat; details: p.o., active doses (mg/kg)
[5] = tested on: apomorphine induced delay in gastric emptying; assay: Increase in gastric emptying - reversal of apomorphine induced delay in gastric emptying of a test meal; details: rat, s.c., apomorphine HCl 5 mg/kg s.c., active doses (mg/kg); for Increase in Gastric Emptying, active dose (slightly active): slightly active at this dose
Description: as §1
(b) Increase in gastric emptying-reversal of apomorphine induced delay in gastric emptying of a test meal.
Rats equipped with chronic gastric fistual were used and it was through this that 5 ml of a test meal (5 ml phosphate buffer at pH 9) was administered and recovered. The % recovery of the standard meal after remaining in the stomach for 10 minutes was taken as an index of gastric emptying. Delay in gastric emptying was induced by the administration of Apomorphine HCl (5 mg/kg subcutaneously) and was given 15 minutes prior to the subcutaneous administration of the Compound. The % recoveries of the test meal was determined at 15-25 and 45-55 minutes post dosing with the Compound and compared with vehicle only dosed animals set up simultaneously. Six animals were used for each group.

[6] = tested on: catapresan induced fighting behaviour; assay: Catapresan Test (catapresan induced fighting behaviour); details: Mus musculus, po; mice, orally; catapresan 20-25 mg/kg intravenously; read-out: ED50, inhibition of catapresan induced fighting behaviour
Description: Catapresan (20-25 mg/kg intravenously) was used to induce fighting behaviour in mice. The fighting was assessed as the biting of a dead mouse placed in the cage and was given a score of 1 or 2 depending on intensity. Compound effect was measured as percentage inhibition of fighting compared to that with control animals and the dose reducing fighting by 50% was determined graphically.

[7] = tested on: amphetamine induced stereotypy; assay: Antagonism of Amphetamine Stereotypy; details: rats, 10 mg/kg subcutaneously; d-amphetamine 10 mg/kg s.c.
Description: Antagonism of Amphetamine Stereotypy
Based on method of Jansen, Niemegeers and Schellekens (1966), Arzneimittel Forsch., 15, pp. 104-117. Rats were given compound 15 minutes prior to subcutaneous injection of d-amphetamine (10 mg/kg). 30 minutes and 1 hour after the amphetamine, the degree of stereotyped behaviour was scored according to the method of Costal, Naylor and Olley (1972). Europ. J. Pharmacol., 18, pp. 83-94. The percentage inhibition of stereotypy at the respective time interval was calculated.

For `COc1cc(N)c(Cl)cc1C(=O)NN1CCN(Cc2ccccc2)CC1` [Example 1, 4-Amino-5-chloro-2-methoxy-N-[4-benzyl-1-piperazinyl]benzamide], the “Inhibition of Stereotype Behaviour, active dose” value (“Inhibition … active dose” for short) [1] was 0.625 mg and the ED50 [2] was 0.0125 mg/kg.

With `COc1cc(N)c(Cl)cc1C(=O)NN1CCN(C)CC1` [Example 2, 4-Amino-5-chloro-2-methoxy-N-[4-methyl-1-piperazinyl]benzamide] the “Inhibition of Stereotype Behaviour” value ([1]; at 100 mg s.c.) was “Inactive”, the “Increase in Intra-gastric Pressure, active dose” value (intragastric pressure [3]) was 1 mg/kg and the ED50 [2] was 8 mg/kg. For the same compound, the “Increase in Intra-gastric Pressure, active dose” value (intragastric pressure [4]) was 20 mg/kg.

In the case of `COc1cc(N)c(Cl)cc1C(=O)NN1CCN(C)CC1` [Example 4, 4-amino-5-chloro-2-methoxy-N-[4-methyl-1-piperazinyl]benzamide], the “Increase in Intra-gastric Pressure, active dose” value (intragastric pressure [4]) is reported as 10 mg/kg.

For `CCN1CCN(NC(=O)c2cc(Cl)c(N)cc2OC)CC1` [Example 5, 4-Amino-5-chloro-2-methoxy-N-[4-ethyl-1-piperazinyl]benzamide], the “Inhibition of Stereotype Behaviour” value ([1]; at 50 mg s.c.) was “Inactive” and the “Increase in Intra-gastric Pressure, active dose” value (intragastric pressure [3]) was 50 mg/kg.

`CCCCN1CCN(NC(=O)c2cc(Cl)c(N)cc2OC)CC1` [Example 6, 4-Amino-5-chloro-2-methoxy-N-[4-n-butyl-1-piperazinyl]benzamide] was tested, and the “Inhibition of Stereotype Behaviour” value ([1]; at 25 mg s.c.) was “Inactive”, the “Increase in Intra-gastric Pressure, active dose” value (intragastric pressure [3]) was 5 mg/kg and the ED50 [2] was 1 mg/kg.

`COc1cc(N)c(Cl)cc1C(=O)NN1CCN(Cc2ccc(Cl)cc2)CC1` [Example 7, 4-Amino-5-chloro-2-methoxy-N-{[4-(4-chlorobenzyl)]1-piperazinyl}benzamide] was tested, and the “Inhibition … active dose” value [1] was 50 mg.

In the case of `COc1ccc(CN2CCN(NC(=O)c3cc(Cl)c(N)cc3OC)CC2)cc1` [Example 8, 4-Amino-5-chloro-2-methoxy-N-[4-(4-methoxybenzyl)-1-piperazinyl]benzamide], the “Inhibition … active dose” value [1] is reported as 3 mg.

With `COc1cc(N)c(Cl)cc1C(=O)NN1CCCN(C)CC1` [Example 9, 4-Amino-5-chloro-2-methoxy-N-[4-methyl-1-(1,4-diazacycloheptyl)]benzamide] the “Inhibition of Stereotype Behaviour” value ([1]; at 25 mg s.c.) was “Inactive”, the “Increase in Intra-gastric Pressure, active dose” value (intragastric pressure [3]) was 10 mg/kg and the Anti-emetic activity ([2]; at 2 mg/kg s.c., inhibition of no. of vomits only) was “slight activity”.

In the case of `COc1cc(N)c(Cl)cc1C(=O)NN1CCN(Cc2cccs2)CC1` [Example 11, 4-Amino-5-chloro-2-methoxy-N-[4-(2-thenyl)-1-piperazinyl]-benzamide], the “Inhibition of Stereotype Behaviour” value ([1]; at 50 mg s.c.) is reported as “Inactive” and the “Increase in Intra-gastric Pressure, active dose (slightly active)” value (intragastric pressure [3]; slightly active at this dose) is reported as 50 mg.

`COc1cc(N)c(Cl)cc1C(=O)NN1CCN(Cc2ccsc2)CC1` [Example 12, 4-Amino-5-chloro-2-methoxy-N-[4-(3-thenyl)-1-piperazinyl]-benzamide] was tested, and the “Inhibition … active dose” value [1] was 50 mg.

For `CCCCCN1CCN(NC(=O)c2cc(Cl)c(N)cc2OC)CC1` [Example 13, 4-amino-5-chloro-2-methoxy-N-[4-(1-pentyl)-1-piperazinyl]-benzamide], the “Inhibition … active dose” value [1] was 50 mg and the ED50 [2] was 0.36 mg/kg.

For `COc1cc(N)c(Cl)cc1C(=O)NN1CCN(Cc2ccc(F)cc2)CC1` [Example 14, 4-amino-5-chloro-2-methoxy-N-[4-(4-fluorobenzyl)-1-piperazinyl]-benzamide], the “Inhibition … active dose” value [1] was 50 mg.

With `CCCN1CCN(NC(=O)c2cc(Cl)c(N)cc2OC)CC1` [Example 15, 4-amino-5-chloro-2-methoxy-N-[4-(1-propyl)-1-piperazinyl]-benzamide] the “Increase in Gastric Emptying, active dose (slightly active)” value [5] was 50 mg, the “Inhibition of Stereotype Behaviour” value ([1]; at 50 mg s.c.) was “Inactive” and the “Increase in Intra-gastric Pressure, active dose” value (intragastric pressure [3]) was 10 mg/kg.

With `COc1cc(N)c(Cl)cc1C(=O)NN1CCN(C(C)C)CC1` [Example 16, 4-amino-5-chloro-2-methoxy-N-[4-(2-propyl)-1-piperazinyl]-benzamide] the “Inhibition of Stereotype Behaviour” value ([1]; at 50 mg s.c.) was “Inactive” and the “Increase in Intra-gastric Pressure, active dose” value (intragastric pressure [3]) was 5 mg/kg.

In the case of `COc1cc(N)c(Cl)cc1C(=O)NN1CC[N+](C)(C)CC1.[Br-]` [Example 17, 4-Amino-5-chloro-2-methoxy-N-[4-methyl-1-piperazinyl]-benzamide methobromide], the “Inhibition of Stereotype Behaviour” value ([1]; at 50 mg s.c.) is reported as “Inactive” and the “Increase in Intra-gastric Pressure, active dose” value (intragastric pressure [3]) is reported as 0.5 mg/kg.

With `COc1cc(N)c(Cl)cc1C(=O)NN1CC[N+](C)(Cc2ccccc2)CC1.[Br-]` [Example 18, 4-Amino-5-chloro-2-methoxy-N-[4-methyl-1-piperazinyl]-benzamide benzobromide] the “Increase in Gastric Emptying, active dose” value [5] was 25 mg, the “Inhibition of Stereotype Behaviour” value ([1]; at 50 mg s.c.) was “Inactive” and the “Increase in Intra-gastric Pressure, active dose” value (intragastric pressure [3]) was 25 mg/kg.

`CCCC[N+]1(C)CCN(NC(=O)c2cc(Cl)c(N)cc2OC)CC1.[Br-]` [Example 19, 4-Amino-5-chloro-2-methoxy-N-[4-n-butyl-1-piperazinyl]-benzamide methobromide] was tested, and the “Increase in Gastric Emptying, active dose (slightly active)” value [5] was 50 mg, the “Inhibition of Stereotype Behaviour” value ([1]; at 50 mg s.c.) was “Inactive” and the “Increase in Intra-gastric Pressure, active dose” value (intragastric pressure [3]) was 1 mg/kg.

`COc1cc(N)c(Cl)cc1C(=O)NN1CCN(CCC(C)C)CC1` [Example 20, 4-Amino-5-chloro-2-methoxy-N-[4-(3-methylbutyl)-1-piperazinyl]-benzamide] gave an ED50 [2] of 0.35 mg/kg.

With `COc1cc(N)c(Br)cc1C(=O)NN1CCN(C)CC1` [Example 21, 4-Amino-5-bromo-2-methoxy-N-[4-methyl-1-piperazinyl]-benzamide hemihydrate] the “Inhibition of Stereotype Behaviour” value ([1]; at 50 mg s.c.) was “Inactive” and the “Increase in Intra-gastric Pressure, active dose” value (intragastric pressure [3]) was 5 mg/kg.

For `CCCCN1CCCN(NC(=O)c2cc(Cl)c(N)cc2OC)CC1` [Example 22, 4-Amino-5-chloro-2-methoxy-N-[4-n-butyl-1-(1-4-diazocycloheptyl)]benzamide], the “Inhibition of apomorphine induced emesis” value ([2]; at 5 mg/kg subcutaneously) was “completely inhibited”.

For `COc1cc(N)c(Cl)cc1C(=O)NN1CCN(Cc2ccc(N(C)C)cc2)CC1` [Example 23, 4-Amino-5-chloro-2-methoxy-N-[4-(4-dimethylaminobenzyl)-1-piperazinyl]benzamide], the ED50 [6] was 60 mg/kg and the “Inhibition of amphetamine induced stereotypy” value [7] was 25%.

Source: patent publication US4267175A, “Benzamide derivatives” (Beecham Group Limited, priority 1976, dated 1981)
